Patent US20050209278A1, “Piperidinyl- and piperazinyl-sulfonylmethyl hydroxamic acids and their use as protease inhibitors” (priority 2002, published 2005)
Structures can show the parent of a compound that is named as a salt. Where two headings read alike, the source gives them in different places.

Assays:
MMP-1 = molecular target: T1, MMP-1 (Homo sapiens, UniProt P03956); test: In vitro MMP inhibition, Ki determination (fluorogenic substrate II); assay type: biochemical; conditions: read-out: MMP-1 Ki
T1 construct: made in house; host or cells: MMP-1-transfected HT-1080 cells (spent media)
T1 sequence (P03956 100-469): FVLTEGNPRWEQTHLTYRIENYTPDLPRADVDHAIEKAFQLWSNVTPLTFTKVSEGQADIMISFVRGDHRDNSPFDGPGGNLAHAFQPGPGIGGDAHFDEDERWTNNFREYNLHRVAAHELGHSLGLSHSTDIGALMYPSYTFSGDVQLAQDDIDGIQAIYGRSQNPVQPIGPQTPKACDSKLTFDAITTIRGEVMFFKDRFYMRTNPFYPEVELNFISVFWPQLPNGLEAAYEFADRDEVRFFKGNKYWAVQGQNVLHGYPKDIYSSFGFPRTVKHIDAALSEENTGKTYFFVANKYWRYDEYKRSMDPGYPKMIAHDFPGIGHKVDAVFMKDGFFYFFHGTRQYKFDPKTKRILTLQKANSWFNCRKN
Procedure: (§1) Several hydroxamic acids and salts thereof were analyzed in in vitro assays to determine their ability to inhibit the MMP cleavage of peptide substrates. […] and IC50 constants were calculated from the assayed hydroxamic acid-MMP interactions.
(§2) Human recombinant MMP-1, MMP-2, MMP-9, MMP-13, and MMP-14 were used in this assay. All enzymes were prepared in Assignee's laboratories following usual laboratory procedures. Protocols for the preparation and use of these enzymes are available in the scientific literature. See, e.g., Enzyme Nomenclature (Academic Press, San Diego, Calif., 1992) (and the citations therein). See also, Freije et al., “Molecular cloning and expression of collagenase-3, a novel human matrix metalloproteinase produced by breast carcinomas,” J Biol. Chem., 269(24), 16766-16773 (1994).
The MMP-1 proenzyme was purified from the spent media of MMP-1-transfected HT-1080 cells provided by Dr. Harold Welgus of Washington University (St. Louis, Mo.). The protein was purified on a zinc chelating column.
(§3) All MMPs were activated using 4-aminophenylmercuric acetate (“APMA”, Sigma Chemical, St. Louis, Mo.) or trypsin. MMP-9 also was activated using human recombinant MMP-3 (purified in Assignee's laboratory following standard cloning and purification techniques).
(§4) Two fluorogenic, methoxycoumarin-containing polypeptide substrates were used in the MMP inhibition assays: [drawing 427] Here, “Dpa” is 3-(2,4-dinitrophenyl)-L-2,3-diaminopropionyl group, and “MCA” is 7-methoxycoumarin-4-yl acetyl. Substrate (I) was purchased from Baychem (Redwood City, Calif.), and substrate II was prepared Assignee's laboratory. Substrate I was used in the IC50 determination assays, while substrate II was used in the Ki determination assays. In the absence of MMP inhibitory activity, either substrate is cleaved at the Gly-Leu peptide bond. This cleavage separates the highly fluorogenic peptide from the 2,4-dinitrophenyl quencher, thus resulting in increase of fluorescent intensity.
(§5) The stock solutions of the assayed hydroxamic acids (or salts thereof) were prepared in 1% dimethyl sulfoxide (DMSO). These stock solutions were diluted in Buffer A (100 mM Tris-HCl, 100 mM NaCl, 10 mM CaCl2, 0.05% polyoxyethylene 23 lauryl ether, pH 7.5) to obtain solutions with different hydroxamic acid concentrations, i.e., assay solutions with different concentrations of the assayed MMP inhibitory compound. The experiment controls contained the same amount of Buffer A/DMSO as the assayed sample, but contained no hydroxamic acid (or salt thereof).
The assays from which the Ki determinations were made were performed as follows. The assayed hydroxamic acid samples were incubated in separate wells of untreated white polystyrene plates (Nunc Nalgene International, Rochester, N.Y.), and analyzed on a Tecan SpectraFlour Plus plate reader. The excitation wavelength was 330 nm, and the emission wavelength—420 nm. All samples (assayed hydroxamic acids and controls) were incubated in separate plate wells at room temperature for 1 hr in the presence of 4 μM of MMP substrate (II). In the absence of MMP inhibitory activity, substrate II was cleaved at the Gly-Leu bond resulting in an increase of relative fluorescence. Inhibition was observed as a reduced rate of this increase in relative fluorescence. The various hydroxamic acids were analyzed using a single low enzyme concentration with a single substrate concentration fixed at or below the Km. This protocol is a modification of method by Knight et al., FEBS Lett., 296(3), 263-266 (1992). Apparent inhibitory constants were determined by non-linear regression of reaction velocity as a function of inhibitor and enzyme concentration using Morrison's equation, as described by Kuzmic, Anal. Biochem. 286, 45-50 (2000). […] Since the substrate concentration was chosen to be at or below the Km, the apparent Ki's from this analysis were reported as Ki's without correction for the influence of substrate.

MMP-13 = molecular target: T2, MMP-13 (Homo sapiens, UniProt P45452); test: as above; assay type: biochemical; conditions: human recombinant enzyme, 4 μM substrate II, room temperature, 1 hr
T2 construct: made in house; host or cells: baculovirus / insect cells
Procedure: as §1, §2
The MMP-13 was obtained as a proenzyme from a full-length cDNA clone using baculovirus, as described by V. A. Luckow, “Insect Cell Expression Technology,” Protein Engineering: Principles and Practice, pp. 183-218 (edited by J. L. Cleland et al., Wiley-Liss, Inc., 1996). The expressed proenzyme was first purified over a heparin agarose column, and then over a chelating zinc chloride column. The proenzyme was then activated by APMA for use in the assay. […] See also, O'Reilly et al, Baculovirus Expression Vectors: A Laboratory Manual (W.H. Freeman and Co., New York, N.Y., 1992). See also, King et al., The Baculovirus Expression System: A Laboratory Guide (Chapman & Hall, London, England, 1992).
as §3, §4, §5
The assays from which the Ki determinations were made were performed as follows. The assayed hydroxamic acid samples were incubated in separate wells of untreated white polystyrene plates (Nunc Nalgene International, Rochester, N.Y.), and analyzed on a Tecan SpectraFlour Plus plate reader. The excitation wavelength was 330 nm, and the emission wavelength—420 nm. All samples (assayed hydroxamic acids and controls) were incubated in separate plate wells at room temperature for 1 hr in the presence of 4 μM of MMP substrate (II). In the absence of MMP inhibitory activity, substrate II was cleaved at the Gly-Leu bond resulting in an increase of relative fluorescence. Inhibition was observed as a reduced rate of this increase in relative fluorescence. The various hydroxamic acids were analyzed using a single low enzyme concentration with a single substrate concentration fixed at or below the Km.

[1] = human recombinant enzyme, 4 μM substrate II, room temperature, 1 hr

| SMILES | Ki (MMP-1; [1]) | Ki (MMP-13; MMP-13 Ki) | Ki (MMP-13; read-out: MMP-13 Ki) | Ki (MMP-1; value not in parenthesis) |
| --- | --- | --- | --- | --- |
| CCCCc1cnc(N2CCN(S(=O)(=O)C3(C(=O)NO)CCOCC3)CC2)cn1 [Example 1, 4-{[4-(5-butylpyrazin-2-yl)piperazin-1-yl]sulfonyl}-N-hydroxytetrahydro-2H-pyran-4-carboxamide Dihydrochloride] | > 10000 nM | 1.82 nM |  |  |
| O=C(NO)C1(S(=O)(=O)N2CCN(c3ccc(OCC(F)(F)F)cc3)CC2)CCOCC1 [Example 2, N-hydroxy-4-({4-[4-(2,2,2-trifluoroethoxy)phenyl]piperazin-1-yl}sulfonyl)tetrahydro-2H-pyran-4-carboxamide Hydrochloride] | > 10000 nM |  | 0.77 nM |  |
| CCOc1ccc(N2CCN(S(=O)(=O)C3(C(=O)NO)CCOCC3)CC2)cc1 [Example 3, 4-{[4-(4-ethoxyphenyl)piperazinyl]sulfonyl}perhydro-2H-pyran-4-carbohydroxamic Acid] | 7530 nM |  | 1.46 nM |  |
| O=C(NO)C1(S(=O)(=O)N2CCN(c3ccc(OC(F)(F)C(F)F)cc3)CC2)CCOCC1 [Example 4, 4-({4-[4-(1,1,2,2-tetrafluoroethoxy)phenyl]piperazinyl}sulfonyl)perhydro-2H-pyran-4-carbohydroxamic Acid] | 1470 nM |  | 0.216 nM |  |
| CCCCc1ccc(N2CCN(S(=O)(=O)C3(C(=O)NO)CCN(CCOC)CC3)CC2)cc1 [Example 5, 4-{[4-(4-butylphenyl)piperazin-1-yl]sulfonyl}-N-hydroxy-1-(2-methoxyethyl)piperidine-4-carboxamide Dihydrochloride] | > 10000 nM |  | 0.522 nM |  |
| CCCCCc1ccc(N2CCN(S(=O)(=O)C3(C(=O)NO)CCN(CCOC)CC3)CC2)cc1 [Example 6, N-Hydroxy-1-(2-methoxyethyl)-4-{[4-(4-pentylphenyl)piperazin-1-yl]sulfonyl}piperidine-4-carboxamide Dihydrochloride] | > 10000 nM |  | 0.27 nM |  |
| O=C(NO)C1(S(=O)(=O)N2CCN(c3ccc(OCCCC(F)(F)F)cc3)CC2)CCOCC1 [Example 7, N-hydroxy-4-({4-[4-(4,4,4-trifluorobutoxy)phenyl]piperazin-1-yl}sulfonyl)tetrahydro-2H-pyran-4-carboxamide Hydrochloride] | > 10000 nM |  | 0.17 nM |  |
| COc1ccc(-c2cnc(N3CCN(S(=O)(=O)C4(C(=O)NO)CCOCC4)CC3)nc2)cc1 [Example 8, N-hydroxy-4-({4-[5-(4-methoxyphenyl)pyrimidin-2-yl]piperazin-1-yl}sulfonyl)tetrahydro-2H-pyran-4-carboxamide Hydrochloride] | 748 nM |  | 0.11 nM |  |
| COCCN1CCC(C(=O)NO)(S(=O)(=O)N2CCN(c3ccc(OCCCC(F)(F)F)cc3)CC2)CC1 [Example 9, N-hydroxy-1-(2-methoxyethyl)-4-({4-[4-(4,4,4-trifluorobutoxy)phenyl]piperazin-1-yl}sulfonyl)piperidine-4-carboxamide Dihydrochloride] | > 10000 nM |  | 0.05 nM |  |
| O=C(NO)C1(S(=O)(=O)N2CCN(c3ccc(OCC4CC4)c(F)c3)CC2)CCN(C2CC2)CC1 [Example 10, 1-cyclopropyl-4-[[4-[4-(cyclopropylmethoxy)-3-fluorophenyl]-1-piperazinyl]sulfonyl]-N-hydroxy-4-piperidinecarboxamide, dihydrochloride] | > 10000 nM |  | 3.88 nM |  |
| CCCCOc1ccc(N2CCN(S(=O)(=O)C3(C(=O)NO)CCN(CCOC)CC3)CC2)cc1F [Example 11, 4-[[4-(4-butoxy-3-fluorophenyl)-1-piperazinyl]sulfonyl]-N-hydroxy-1-(2-methoxyethyl)-4-piperidinecarboxamide, Dihydrochloride] | > 10000 nM |  | 0.67 nM |  |
| O=C(NO)C1(S(=O)(=O)N2CCN(c3ccc(-c4ccccc4)c(F)c3)CC2)CCOCC1 [Example 12, 4-{[4-(2-fluoro-1,1′-biphenyl-4-yl)piperazin-1-yl]sulfonyl}-N-hydroxytetrahydro-2H-pyran-4-carboxamide Hydrochloride] | > 10000 nM |  | 0.77 nM |  |
| CCCCCc1ccc(N2CCN(S(=O)(=O)C3(C(=O)NO)CCN(CCOC)CC3)CC2)cc1F [Example 13, 4-{[4-(3-fluoro-4-pentylphenyl)piperazin-1-yl]sulfonyl}-N-hydroxy-1-(2-methoxyethyl)piperidine-4-carboxamide Dihydrochloride] | > 10000 nM |  | 0.61 nM |  |
| COCCOc1ccc(N2CCN(S(=O)(=O)C3(C(=O)NO)CCOCC3)CC2)cc1 [Example 14, N-hydroxy-4-({4-[4-(2-methoxyethoxy)phenyl]piperazin-1-yl}sulfonyl)tetrahydro-2H-pyran-4-carboxamide Hydrochloride] | > 10000 nM |  | 2.67 nM |  |
| CCCCCc1ccc(C2CCN(S(=O)(=O)C3(C(=O)NO)CCN(CCOC)CC3)CC2)cc1 [Example 15, N-hydroxy-1-(2-methoxyethyl)-4-{[4-(4-pentylpheyl)piperidin-1-yl]sulfonyl}piperidine-4-carboxamide Hydrochloride] | > 10000 nM |  | 0.23 nM |  |
| CCCCOc1ccc(C2CCN(S(=O)(=O)C3(C(=O)NO)CCN(CCOC)CC3)CC2)cc1 [Example 16, 4-{[4-(4-butoxyphenyl)piperidin-1-yl]sulfonyl}-N-hydroxy-1-(2-methoxyethyl)piperidine-4-carboxamide Hydrochloride] | > 10000 nM |  | 0.34 nM |  |
| O=C(NO)C1(S(=O)(=O)N2CCN(c3ccc(OCCCC(F)(F)F)cc3F)CC2)CCOCC1 [Example 117] |  |  |  | > 10000 nM |
| CCCCOc1ccc(N2CCN(S(=O)(=O)C3(C(=O)NO)CCN(c4nccc(C(F)(F)F)n4)CC3)CC2)cc1 [Example 130] |  |  |  | > 10000 nM |
